Measurements published in ChEMBL document CHEMBL5209579, “Flow cytometry transport assay for SLC2A4 using HEK293 JumpIN TRex SLC2A4 WT-OE cells” (2022).

Molecular target: T1, Solute carrier family 2, facilitated glucose transporter member 4 (Homo sapiens, UniProt P14672)
T1 sequence (P14672 whole entry): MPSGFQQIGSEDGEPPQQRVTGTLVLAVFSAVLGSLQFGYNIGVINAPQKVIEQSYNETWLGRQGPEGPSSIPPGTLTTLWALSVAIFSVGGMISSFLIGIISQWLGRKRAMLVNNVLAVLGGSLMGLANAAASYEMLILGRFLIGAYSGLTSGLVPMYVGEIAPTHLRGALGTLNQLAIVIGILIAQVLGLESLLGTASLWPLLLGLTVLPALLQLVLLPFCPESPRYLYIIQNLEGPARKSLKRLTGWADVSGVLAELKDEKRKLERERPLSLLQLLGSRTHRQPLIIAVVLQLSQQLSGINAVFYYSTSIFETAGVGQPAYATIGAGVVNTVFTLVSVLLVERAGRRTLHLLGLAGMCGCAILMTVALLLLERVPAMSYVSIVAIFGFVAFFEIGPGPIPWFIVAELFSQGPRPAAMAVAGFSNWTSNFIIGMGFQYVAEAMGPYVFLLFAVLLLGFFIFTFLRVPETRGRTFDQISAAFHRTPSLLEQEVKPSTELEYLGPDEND
Experiment: Inhibition of the Glucose Transporter (GLUT4, SLC2A4) as assessed by a FRET based flow cytometry assay using a genetically-encoded biosensor for measuring free glucose (FLII12Pglu-700uDelta6) in HEK293 JumpIN TRex SLC2A4 WT-OE cells (PubChem AID: 1794828)
Assay type: functional, cell-based

EC50 [µM]	Structure (SMILES)	IC50 [µM]
860	OC[C@H]1OC(O)[C@H](O)[C@@H](O)[C@@H]1O (stereo partly drawn) [DEXTROSE]	–
–	Cc1c(NC(=O)c2cc(C(N)=O)nc3cc(F)ccc23)c(C(F)(F)F)nn1Cc1ccc(C#N)cc1 [BAY-876]	5.5
–	O=C(Oc1cccc(F)c1OC(=O)c1cccc(O)c1)c1cccc(O)c1	2.5
